Where two headings read alike, the source gives them in different places. Where only a bound is given, the exact number is not on record here.

In one series the target is human PAI-1 (Homo sapiens, UniProt P05121). Nature of the series: Assay for determining IC50 of inhibition of PAI-1 (tPA-coated plate, antibody detection of active PAI-1). The settings on record: human PAI-1 50 ng/ml, pH 7.5, binding to tPA-coated plate. The procedure: Assay for Determining IC50 of Inhibition of PAI-1
This assay is based upon the non-SDS dissociable interaction between tPA and active PAI-1. Assay plates were initially coated with human tPA (10 μg/ml). Test compounds were dissolved in DMSO at 10 mM, then diluted with physiologic buffer (pH 7.5) to a final concentration of 1-50 μM. Test compounds were incubated with human PAI-1 (50 ng/ml) for 15 minutes at room temperature. The tPA-coated plate was washed with a solution of 0.05% Tween 20 and 0.1% BSA, then the plate was blocked with a solution of 3% BSA. An aliquot of the test compound/PAI-1 solution was then added to the tPA-coated plate, incubated at room temperature for 1 hour, and washed. Active PAI-1 bound to the plate was assessed by adding an aliquot of a 1:1000 dilution of the 33B8 monoclonal antibody against human PAI-1, and incubating the plate at room temperature for 1 hour (Molecular Innovations, Royal Oak, Mich.). The plate was again washed, and a solution of goat anti-mouse IgG-alkaline phosphatase conjugate is added at a 1:50,000 dilution in goat serum. The plate was incubated 30 minutes at room temperature, washed, and a solution of alkaline phosphatase substrate is added. The plate was incubated 45 minutes at room temperature, and color development is determined at OD405 nm. The quantition of active PAI-1 bound to tPA at varying concentrations of the test compound was used to determine the IC50. Results were analyzed using a logarithmic best-fit equation. The assay sensitivity was 5 ng/ml of human PAI-1 as determined from a standard curve ranging from 0-100 ng/ml.

Series [1] has as its target T1, recombinant human plasminogen activator inhibitor-1 (Homo sapiens, UniProt P05121).
T1 construct: purchased Molecular Innovations, Royal Oak, Mich
The series is described as follows: Primary screen for the PAI-1 inhibition (chromogenic residual tPA activity). It counts as biochemical. The procedure: Primary Screen for the PAI-1 Inhibition
Test compounds were dissolved in DMSO at a final concentration of 10 mM, then diluted 100× in physiologic buffer. The inhibitory assay was initiated by the addition of the test compound (1-100 μM final concentration, maximum DMSO concentration of 0.2%) in a pH 6.6 buffer containing 140 nM recombinant human plasminogen activator inhibitor-1 (Molecular Innovations, Royal Oak, Mich.). Following a 1 hour incubation at room temperature, 70 nM of recombinant human tissue plasminogen activator (tPA) was added, and the combination of the test compound, PAI-1 and tPA was incubated for an additional 30 minutes. Following the second incubation, Spectrozyme-tPA (American Diagnostica, Greenwich, Conn.), a chromogenic substrate for tPA, was added and absorbance read at 405 nm at 0 and 60 minutes. Relative PAI-1 inhibition was equal to the residual tPA activity in the presence of the test compound and PAI-1. Control treatments included the complete inhibition of tPA by PAI-1 at the molar ratio employed (2:1), and the absence of any effect of the test compound on tPA alone.

[2] abbreviates: 25 uM test compound, 140 nM PAI-1, 70 nM tPA, pH 6.6, read-out: % inhibition at 25 uM.
Where [3] appears, read: pH 6.6, read-out: % inhibition at 25 uM.

human PAI-1, sequence (P05121 24-402): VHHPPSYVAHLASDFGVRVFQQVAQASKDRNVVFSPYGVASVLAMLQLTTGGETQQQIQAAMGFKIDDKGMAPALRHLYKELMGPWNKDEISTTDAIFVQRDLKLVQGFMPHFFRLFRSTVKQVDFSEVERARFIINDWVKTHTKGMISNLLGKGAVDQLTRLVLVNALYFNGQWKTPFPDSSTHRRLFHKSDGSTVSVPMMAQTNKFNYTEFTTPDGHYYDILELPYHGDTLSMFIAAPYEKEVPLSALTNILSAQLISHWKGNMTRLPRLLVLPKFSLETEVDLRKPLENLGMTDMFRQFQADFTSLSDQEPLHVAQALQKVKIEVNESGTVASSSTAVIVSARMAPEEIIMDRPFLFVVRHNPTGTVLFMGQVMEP
T1 sequence (P05121 24-402): as above

`Cc1ccc(Cn2c3c(c4cc(-c5ccc(OC(F)(F)F)cc5)ccc42)C(=O)C(=O)OC3)cc1` [Example 1, 9-(4-Methylbenzyl)-6-[4-(trifluoromethoxy)phenyl]-1,9-dihydropyrano[3,4-b]indole-3,4-dione]: the melting point was in the range of 243 to 244 °C. Also, the IC50 at human PAI-1 was determined as 2.3 µM.

`O=C1OCc2c(c3cc(-c4ccc(OC(F)(F)F)cc4)ccc3n2Cc2ccccc2)C1=O` [Example 2, 9-Benzyl-6-[4-(trifluoromethoxy)phenyl]-1,9-dihydropyrano[3,4-b]indole-3,4-dione] registered a melting point of 239 to 240 °C. Moreover, the inhibition at 25 µM in series [1] (setting [2]) turned out to be 34%.

On to `Cc1ccc(Cn2c3c(c4cc(-c5cccc(C)c5)ccc42)C(=O)C(=O)OC3)cc1` [Example 3, 9-(4-Methylbenzyl)-6-(3-methylphenyl)-1,9-dihydropyrano[3,4-b]indole-3,4-dione], for which the melting point lay within 216 to 217 °C. In addition, the inhibition at 25 µM in series [1] (setting [3]) worked out at 22%.

With `Cc1cccc(-c2ccc3c(c2)c2c(n3Cc3ccc(C(C)(C)C)cc3)COC(=O)C2=O)c1` [Example 4, 9-(4-tert-butylbenzyl)-6-(3-methylphenyl)-1,9-dihydropyrano[3,4-b]indole-3,4-dione], the melting point lay in the range of 196 to 197 °C. Moreover, the concentration for half-maximal inhibition (IC50) on human PAI-1 was 29.5 µM.

In turn, `Cc1ccc(Cn2c3c(c4cc(OCc5ccccc5)ccc42)C(=O)C(=O)OC3)cc1` [Example 5, 6-(Benzyloxy)-9-(4-methylbenzyl)-1,9-dihydropyrano[3,4-b]indole-3,4-dione] came in with a melting point of 206 to 207 °C. At human PAI-1, the 50% inhibitory concentration (IC50) stood at 26.6 µM.

`O=C1OCc2[nH]c3ccc(OCc4ccccc4)cc3c2C1=O` [Example 6, 6-(Benzyloxy)-1,9-dihydropyrano[3,4-b]indole-3,4-dione]: the melting point is > 291 °C (dec.). Moreover, the IC50 at human PAI-1 is 34.8 µM.

Take `CC(C)(C)c1ccc(Cn2c3c(c4cc(OCc5ccccc5)ccc42)C(=O)C(=O)OC3)cc1` [Example 7, 6-(Benzyloxy)-9-(4-tert-butylbenzyl)-1,9-dihydropyrano[3,4-b]indole-3,4-dione]: the melting point lay within 233 to 234 °C. For the same compound, in series [1] (setting [2]), the inhibition at 25 µM came out at 6%.

Consider `CC(C)(C)c1ccc(Cn2c3c(c4cc(O)ccc42)C(=O)C(=O)OC3)cc1` [Example 8, 9-(4-tert-Butylbenzyl)-6-hydroxy-1,9-dihydropyrano[3,4-b]indole-3,4-dione], for which the melting point is > 105 °C (dec.). Moreover, the IC50 at human PAI-1 amounted to 4.83 µM.

The compound `O=C1OCc2c(c3cc(-c4ccc(Cl)cc4)ccc3n2Cc2ccccc2)C1=O` [Example 9, 9-Benzyl-6-(4-chlorophenyl)-1,9-dihydropyrano[3,4-b]indole-3,4-dione] returned a melting point of 263 to 264 °C. Moreover, in series [1] (setting [3]), the inhibition at 25 µM was 40%.

For `O=C([O-])C(=O)c1c(CO)n(Cc2ccccc2)c2ccc(-c3ccc(Cl)cc3)cc12.[K+]` [Example 10, [1-Benzyl-5-(4-chlorophenyl)-2-(hydroxymethyl)-1H-indol-3-yl](oxo)acetic acid, potassium salt], the melting point lay within 225 to 226 °C. The inhibition at 25 µM in series [1] (setting [3]) worked out at 59%.

For `Cc1cccc(-c2ccc3c(c2)c2c(n3Cc3ccccc3)COC(=O)C2=O)c1` [Example 11, 9-Benzyl-6-(3-methylphenyl)-1,9-dihydropyrano[3,4-b]indole-3,4-dione], the melting point is 225 to 226 °C. Moreover, in series [1] (setting [3]), the inhibition at 25 µM was found to be 30%.

As to `O=C1OCc2c(c3cc(-c4ccc(-c5ccccc5)cc4)ccc3n2Cc2ccccc2)C1=O` [Example 12, 9-Benzyl-6-(1,1′-biphenyl-4-yl)-1,9-dihydropyrano[3,4-b]indole-3,4-dione], the melting point was in the range of 254 to 255 °C. In addition, in series [1] (setting [2]), the inhibition at 25 µM was 40%.

The compound `O=C([O-])C(=O)c1c(CO)n(Cc2ccccc2)c2ccc(-c3ccc(-c4ccccc4)cc3)cc12.[K+]` [Example 13, [1-Benzyl-5-(1,1′-biphenyl-4-yl)-2-(hydroxymethyl)-1H-indol-3-yl](oxo)acetic acid, potassium salt] returned a melting point of 266 to 268 °C. Besides, the inhibition at 25 µM in series [1] (setting [3]) was 36%.

The term IC50 denotes the concentration needed to halve the response being measured. Read a low IC50 as inhibition by little substance. One may read the melting point as the temperature of the solid-liquid transition. The inhibition is the drop in the measured response relative to a control, in per cent.
